Source: patent publication US8846909B2, “Bicyclic heteroaryl kinase inhibitors and methods of use” (University of Rochester, priority 2010, dated 2014)

These compounds were tested against T1, MLK3 (Homo sapiens, UniProt Q16584) (assay: Radiometric filter plate MLK3 assay). Details: read-out: MK3 IC50.
T1 construct: purchased Dundee DU8313
Format: biochemical
Protocol: After a twenty minute incubation, the reactions were washed through filter plates and read on a scintillation counter. Results are shown in Table 10 below, in which +++ indicates ≦0.1 μM, ++ indicates >0.1 μM and ≦1 μM, and + indicates >1 μM.
Note: 2 µM cold ATP (Km).

T1 sequence (Q16584 whole entry): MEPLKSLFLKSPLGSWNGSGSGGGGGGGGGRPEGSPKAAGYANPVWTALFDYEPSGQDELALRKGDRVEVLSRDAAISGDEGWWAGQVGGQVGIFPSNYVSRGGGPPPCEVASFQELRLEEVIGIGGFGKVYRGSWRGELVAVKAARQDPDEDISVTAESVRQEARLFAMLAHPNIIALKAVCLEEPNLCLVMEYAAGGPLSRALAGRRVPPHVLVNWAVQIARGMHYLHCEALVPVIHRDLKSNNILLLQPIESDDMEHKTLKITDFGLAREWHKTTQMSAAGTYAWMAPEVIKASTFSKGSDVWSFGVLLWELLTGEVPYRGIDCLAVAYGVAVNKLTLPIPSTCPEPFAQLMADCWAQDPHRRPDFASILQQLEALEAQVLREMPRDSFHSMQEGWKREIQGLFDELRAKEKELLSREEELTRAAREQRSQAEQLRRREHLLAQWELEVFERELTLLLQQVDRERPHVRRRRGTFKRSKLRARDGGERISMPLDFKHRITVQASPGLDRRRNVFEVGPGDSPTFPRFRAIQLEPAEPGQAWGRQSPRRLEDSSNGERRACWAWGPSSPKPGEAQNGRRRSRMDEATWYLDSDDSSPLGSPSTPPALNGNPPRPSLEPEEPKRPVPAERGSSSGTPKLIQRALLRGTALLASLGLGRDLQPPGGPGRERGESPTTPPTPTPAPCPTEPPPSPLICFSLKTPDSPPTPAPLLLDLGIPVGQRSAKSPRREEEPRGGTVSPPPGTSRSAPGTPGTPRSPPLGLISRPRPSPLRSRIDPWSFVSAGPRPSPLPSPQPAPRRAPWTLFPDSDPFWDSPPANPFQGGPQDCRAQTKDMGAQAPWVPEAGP

`O=c1[nH]c2ncc(-c3cc(Cl)cc(Cl)c3)nc2n1CC1CC1` [Example 80, 1-(cyclopropylmethyl)-6-(3,5-dichlorophenyl)-1H-imidazo[4,5-b]pyrazin-2(3H)-one] and `COc1cc(-c2cnc3[nH]c(=O)n(CC4CC4)c3c2)cc(OC)c1OC` [Example 125, 1-(cyclopropylmethyl)-6-(3,4,5-trimethoxyphenyl)-1H-imidazo[4,5-b]pyridin-2(3H)-one] cannot be ordered by IC50: over 1000 nM for the first, over 1000 nM for the second.

`CCC(=O)N1CCN(Cc2ccc(-c3cnc4[nH]cc(-c5ccc6[nH]ccc6c5)c4c3)cc2)CC1` [Example 187] and `CC(C)CC(=O)N1CCN(Cc2ccc(-c3cnc4[nH]cc(-c5ccc6[nH]ccc6c5)c4c3)cc2)CC1` [Example 194] cannot be ordered by IC50: under 100 nM for the first, under 100 nM for the second.

`COc1cc(-c2cnc3[nH]c(=O)n(-c4ccc5[nH]c(C)cc5c4)c3n2)cc(OC)c1OC` [Example 72, 1-(2-methyl-1H-indol-5-yl)-6-(3,4,5-trimethoxyphenyl)-1H-imidazo[4,5-b]pyrazin-2(3H)-one] and `COc1cc(-c2cnc3[nH]c(=O)n(-c4ccc5[nH]cnc5c4)c3n2)cc(OC)c1OC` [Example 102, 1-(1H-benzo[d]imidazol-5-yl)-6-(3,4,5-trimethoxyphenyl)-1H-imidazo[4,5-b]pyrazin-2(3H)-one] cannot be ordered by IC50: under 100 nM for the first, under 100 nM for the second.

`COC(=O)N1CCN(Cc2ccc(-c3cnc4[nH]cc(-c5ccc6[nH]ccc6c5)c4c3)cc2)CC1` [Example 184] and `CC(C)C(=O)N1CCN(Cc2ccc(-c3cnc4[nH]cc(-c5ccc6[nH]ccc6c5)c4c3)cc2)CC1` [Example 186] cannot be ordered by IC50: under 100 nM for the first, under 100 nM for the second.

`Nc1ccc(-c2cnc3[nH]c(=O)n(C4CCCC4)c3n2)cn1` [Example 117, 6-(6-aminopyridin-3-yl)-1-cyclopentyl-1H-imidazo[4,5-b]pyrazin-2(3H)-one] and `COc1ccc(-c2cnc3[nH]c(=O)n(C4CCCC4)c3n2)cc1OC` [Example 75, 1-cyclopentyl-6-(3,4-dimethoxyphenyl)-1H-imidazo[4,5-b]pyrazin-2(3H)-one] cannot be ordered by IC50: over 1000 nM for the first, over 1000 nM for the second.

`COc1cc(-c2cnc3[nH]c(=O)n(C4CCCC4)c3n2)cc(OC)c1OC` [Example 74, 1-cyclopentyl-6-(3,4,5-trimethoxyphenyl)-1H-imidazo[4,5-b]pyrazin-2(3H)-one] and `COc1cc(-c2cnc3[nH]c(=O)n(C4Cc5ccccc5C4)c3n2)cc(OC)c1OC` [Example 110, 1-(2,3-dihydro-1H-inden-2-yl)-6-(3,4,5-trimethoxyphenyl)-1H-imidazo[4,5-b]pyrazin-2(3H)-one] cannot be ordered by IC50: under 100 nM for the first, under 100 nM for the second.

`Cn1ccc2cc(-n3c(=O)[nH]c4ncc(-c5ccc(O)cc5)nc43)ccc21` [Example 42, 6-(4-hydroxyphenyl)-1-(1-methyl-1H-indol-5-yl)-1H-imidazo[4,5-b]pyrazin-2(3H)-one] and `Cc1cc(C)cc(-c2cnc3[nH]c(=O)n(-c4ccc5c(ccn5C)c4)c3n2)c1` [Example 43, 6-(3,5-dimethylphenyl)-1-(1-methyl-1H-indol-5-yl)-1H-imidazo[4,5-b]pyrazin-2(3H)-one] cannot be ordered by IC50: over 1000 nM for the first, over 1000 nM for the second.

`CN1CCN(Cc2ccc(-c3cnc4[nH]cc(-c5ccc(C(F)(F)F)cc5)c4c3)cc2)CC1` [Example 171] and `CN1CCN(Cc2ccc(-c3cnc4[nH]cc(-c5ccc(F)cc5)c4c3)cc2)CC1` [Example 170] cannot be ordered by IC50: over 1000 nM for the first, over 1000 nM for the second.

`O=C(CCO)N1CCN(Cc2ccc(-c3cnc4[nH]cc(-c5ccc6[nH]ccc6c5)c4c3)cc2)CC1` [Example 191] and `O=C(CC1CC1)N1CCN(Cc2ccc(-c3cnc4[nH]cc(-c5ccc6[nH]ccc6c5)c4c3)cc2)CC1` [Example 193] cannot be ordered by IC50: under 100 nM for the first, under 100 nM for the second.

Compared with `CN1CCN(C(=O)c2ccc(-c3cnc4[nH]cc(-c5ccc6[nH]ccc6c5)c4c3)cc2)CC1` [Example 145, {4-[3-(1H-indol-5-yl)-1H-pyrrolo[2,3-b]pyridin-5-yl]-phenyl}-(4-methyl-piperazin-1-yl)-methanone], `CC(=O)N1CCN(C(=O)c2ccc(-c3cnc4[nH]cc(-c5ccc6[nH]ccc6c5)c4c3)cc2)CC1` [Example 146, 1-(4-{4-[3-(1H-indol-5-yl)-1H-pyrrolo[2,3-b]pyridin-5-yl]-benzoyl}piperazin-1-yl)-ethanone] is lower in IC50: 100 to 1000 nM for the first, under 100 nM for the second.

`Nc1ccc(-c2cnc3[nH]cc(-c4ccc5[nH]ccc5c4)c3c2)cc1` [Example 8, 4-(3-(1H-indol-5-yl)-1H-pyrrolo[2,3-b]pyridin-5-yl)aniline] and `CC(=O)Nc1ccc(-c2cnc3[nH]cc(-c4ccc5[nH]ccc5c4)c3c2)cc1` [Example 3, N-(4-(3-(1H-indol-5-yl)-1H-pyrrolo[2,3-b]pyridin-5-yl)phenyl)acetamide] cannot be ordered by IC50: under 100 nM for the first, under 100 nM for the second.

First: COc1cc(-c2cc3c(-c4ccc(C(N)=O)cc4)c[nH]c3[n+]([O-])c2)cc(OC)c1OC [Example 154, 4-[7-oxy-5-(3,4,5-trimethoxy-phenyl)-1H-pyrrolo[2,3-b]pyridin-3-yl]benzamide]
Second: COc1cc(-c2cnc3c(c2)C(Cc2ccccc2)C(=O)N3)cc(OC)c1OC (centres unmarked) [Example 137, 3-benzyl-5-(3,4,5-trimethoxy-phenyl)-1,3-dihydro-pyrrolo[2,3-b]pyridin-2-one]
The IC50 of the first is lower: 100 to 1000 nM for the first, over 1000 nM for the second. The first is the more potent here.

`Cc1cc(C)cc(-c2cnc3[nH]c(=O)n(-c4ccc5[nH]ccc5c4)c3n2)c1` [Example 46, 6-(3,5-dimethylphenyl)-1-(1H-indol-5-yl)-1H-imidazo[4,5-b]pyrazin-2(3H)-one] and `O=c1[nH]c2ncc(-c3cc(F)cc(F)c3)nc2n1-c1ccc2[nH]ccc2c1` [Example 61, 6-(3,5-difluorophenyl)-1-(1H-indol-5-yl)-1H-imidazo[4,5-b]pyrazin-2(3H)-one] cannot be ordered by IC50: over 1000 nM for the first, over 1000 nM for the second.

`COc1ccc(-c2cnc3[nH]cc(-c4ccc5[nH]ccc5c4)c3n2)cc1OC` [Example 37, 2-(3,4-dimethoxyphenyl)-7-(1H-indol-5-yl)-5H-pyrrolo[3,2-b]pyrazine] and `COc1cc(-c2cnc3[nH]cc(-c4ccc5[nH]ccc5c4)c3n2)ccc1N` [Example 38, 4-(7-(1H-indol-5-yl)-5H-pyrrolo[3,2-b]pyrazin-2-yl)-2-methoxyaniline] cannot be ordered by IC50: under 100 nM for the first, under 100 nM for the second.

Compared with `Cc1cc(C)cc(-c2cnc3[nH]c(=O)n(-c4ccc5scnc5c4)c3n2)c1` [Example 99, 1-(benzo[d]thiazol-5-yl)-6-(3,5-dimethylphenyl)-1H-imidazo[4,5-b]pyrazin-2(3H)-one], `O=c1[nH]c2ncc(-c3cc(F)c(O)c(F)c3)nc2n1-c1ccc2[nH]ccc2c1` [Example 59, 6-(3,5-difluoro-4-hydroxyphenyl)-1-(1H-indol-5-yl)-1H-imidazo[4,5-b]pyrazin-2(3H)-one] is lower in IC50: over 1000 nM for the first, under 100 nM for the second. The second is the more potent here.

`COc1cc(-c2cnc3[nH]cc(-c4ccc5[nH]ccc5c4)c3c2)ccc1N` [Example 5, 4-(3-(1H-indol-5-yl)-1H-pyrrolo[2,3-b]pyridin-5-yl)-2-methoxyaniline] and `CS(=O)(=O)Nc1ccc(-c2cnc3[nH]cc(-c4ccc5[nH]ccc5c4)c3c2)cc1` [Example 11, N-(4-(3-(1H-indol-5-yl)-1H-pyrrolo[2,3-b]pyridin-5-yl)phenyl)methanesulfonamide] cannot be ordered by IC50: under 100 nM for the first, under 100 nM for the second.

`CC(C)(C)OC(=O)N1CCN(C(=O)c2cccc(-c3cnc4[nH]cc(-c5ccc(C(N)=O)cc5)c4c3)c2)CC1` [Example 151, 4-{3-[3-(4-carbamoyl-phenyl)-1H-pyrrolo[2,3-b]pyridin-5-yl]-benzoyl}-piperazine-1-carboxylic acid tert-butyl ester] and `CC(C)(C)OC(=O)N1CCN(C(=O)c2ccc(-c3cnc4[nH]cc(-c5ccc(C(N)=O)cc5)c4c3)cc2)CC1` [Example 148, 4-{4-[3-(4-carbamoyl-phenyl)-1H-pyrrolo[2,3-b]pyridin-5-yl]-benzoyl}-piperazine-1-carboxylic acid tert-butyl ester] cannot be ordered by IC50: under 100 nM for the first, under 100 nM for the second.

`COc1cc(-c2cnc3ncn(-c4ccc5[nH]ccc5c4)c3n2)cc(OC)c1OC` [Example 126, 1-(1H-indol-5-yl)-6-(3,4,5-trimethoxyphenyl)-1H-imidazo[4,5-b]pyrazine] and `O=c1[nH]c2ncc(-c3ccncc3)nc2n1-c1ccc2[nH]ncc2c1` [Example 88, 1-(1H-indazol-5-yl)-6-(pyridin-4-yl)-1H-imidazo[4,5-b]pyrazin-2(3H)-one] cannot be ordered by IC50: over 1000 nM for the first, over 1000 nM for the second.

First: CN1CCN(c2cc(-c3cnc4[nH]cc(-c5ccc6[nH]ccc6c5)c4c3)ccn2)CC1 [Example 7, 3-(1H-indol-5-yl)-5-(2-(4-methylpiperazin-1-yl)pyridin-4-yl)-1H-pyrrolo[2,3-b]pyridine]
Second: c1cc2cc(-c3c[nH]c4ncc(-c5ccc(NCCN6CCCC6)nc5)cc34)ccc2[nH]1 [Example 31, 5-(3-(1H-indol-5-yl)-1H-pyrrolo[2,3-b]pyridin-5-yl)-N-(2-(pyrrolidin-1-yl)ethyl)pyridin-2-amine]
The IC50 of the first is lower: under 100 nM for the first, 100 to 1000 nM for the second.

`CS(=O)(=O)N1CCN(Cc2ccc(-c3cnc4[nH]cc(-c5ccc6[nH]ccc6c5)c4c3)cc2)CC1` [Example 190] and `c1cc2cc(-c3c[nH]c4ncc(-c5ccc(CN6CCOCC6)cc5)cc34)ccc2[nH]1` [Example 169, 4-(4-(3-(1H-indol-5-yl)-1H-pyrrolo[2,3-b]pyridin-5-yl)benzyl)morpholine] cannot be ordered by IC50: under 100 nM for the first, under 100 nM for the second.

`O=C1CCC(C(=O)N2CCN(Cc3ccc(-c4cnc5[nH]cc(-c6ccc7[nH]ccc7c6)c5c4)cc3)CC2)N1` (centres unmarked) [Example 195] and `CNC(=O)c1ccc(-c2c[nH]c3ncc(-c4ccc(CN5CCN(C)CC5)cc4)cc23)cc1` [Example 165, N-methyl-4-{5-[4-(4-methyl-piperazin-1-ylmethyl)-phenyl]-1H-pyrrolo[2,3-b]pyridin-3-yl}-benzamide] cannot be ordered by IC50: under 100 nM for the first, under 100 nM for the second.

Compared with `CN(C)c1ccc(-c2cnc3[nH]cc(-c4ccc(F)c(Cl)c4)c3c2)cn1` [Example 22, 5-(3-(3-chloro-4-fluorophenyl)-1H-pyrrolo[2,3-b]pyridin-5-yl)-N,N-dimethylpyridin-2-amine], `CN1CCN(Cc2cccc(-c3cnc4[nH]cc(-c5ccc(C(N)=O)cc5)c4c3)c2)CC1` [Example 156, 4-{5-[3-(4-methyl-piperazin-1-ylmethyl)-phenyl]-1H-pyrrolo[2,3-b]pyridin-3-yl}-benzamide] is lower in IC50: over 1000 nM for the first, under 100 nM for the second.
